Measurements: ChEMBL document CHEMBL1132983, “Doubly homologated dihalovinyl and acetylene analogues of adenosine: synthesis, interaction with S-adenosyl-L-homocysteine hydrolase, and antiviral and cytostatic effects” (J Med Chem, 2000)

Experiments:
[1] = target: Adenosylhomocysteinase (Homo sapiens) (UniProt P23526); assay: Compound was evaluated for inhibition of human placental AdoHcy hydrolase at a concentration of 100 uM
[2] = target: Adenosylhomocysteinase (Homo sapiens) (UniProt P23526); assay: Compound was evaluated for inhibition of human placental AdoHcy hydrolase at a concentration of 50 uM
[3] = target: Adenosylhomocysteinase (Homo sapiens) (UniProt P23526); assay: Compound was evaluated for inhibition of human placental AdoHcy hydrolase at a concentration of 1.0 uM
[4] = target: Adenosylhomocysteinase (Homo sapiens) (UniProt P23526); assay: Compound was evaluated for inhibition of human placental AdoHcy hydrolase at a concentration of 10 uM
[5] = target: Adenosylhomocysteinase (Homo sapiens) (UniProt P23526); assay: Compound was evaluated for inhibition of human placental AdoHcy hydrolase at a concentration of 0.1 uM

Sequence of Adenosylhomocysteinase (Homo sapiens) (P23526 2-432 limits assumed): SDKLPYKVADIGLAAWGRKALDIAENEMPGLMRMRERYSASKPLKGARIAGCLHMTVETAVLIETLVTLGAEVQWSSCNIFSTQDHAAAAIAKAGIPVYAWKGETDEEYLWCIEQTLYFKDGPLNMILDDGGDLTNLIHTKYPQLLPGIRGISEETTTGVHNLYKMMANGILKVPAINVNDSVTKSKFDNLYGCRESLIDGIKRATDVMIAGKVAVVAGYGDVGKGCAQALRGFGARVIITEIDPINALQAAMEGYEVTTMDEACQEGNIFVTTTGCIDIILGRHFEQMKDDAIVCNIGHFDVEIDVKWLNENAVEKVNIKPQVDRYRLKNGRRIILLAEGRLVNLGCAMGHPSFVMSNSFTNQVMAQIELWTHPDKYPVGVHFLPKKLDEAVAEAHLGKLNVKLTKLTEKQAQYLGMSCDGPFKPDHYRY

Enzyme activity [1] [%] | Enzyme activity [2] [%] | Enzyme activity [3] [%] | Enzyme activity [4] [%] | Enzyme activity [5] [%] | Compound
4 | 5 | 48.5 | 17.1 | 87.5 | Nc1ncnc2c1ncn2C1O[C@H](CC=C(Br)Br)[C@@H](O)[C@H]1O (stereo not given in full)
8 | 14.3 | 73.4 | 38.9 | 98.3 | C#CC[C@H]1OC(n2cnc3c(N)ncnc32)[C@H](O)[C@@H]1O (stereo not given in full)
5.8 | 9.7 | 87.4 | 37.4 | 90.6 | Nc1ncnc2c1ncn2C1O[C@H](C/C=C(/F)Br)[C@@H](O)[C@H]1O (stereo not given in full)
